We go through 24 molecules from patent publication US5212187A, “Pyridyl alkylamine compounds which are useful against histamine H1 and H2 receptors” (Zyma SA, priority 1991, dated 1993).

One experiment deals with T1, histamine H1 -receptors (Cavia porcellus, UniProt P31389).
T1 construct: isolated guinea pig ileum (H1); from tissue; host or cells: isolated guinea pig ileum
Briefly: in vitro histamine H1-antagonism on isolated guinea pig ileum. The conditions noted are these: cumulative concentration/action curves (van Rossum), read-out: H1 -antagonism ileum -log KB (converted). The source says:
(§1) The compounds of formula I according to the invention are distinguished by a novel overall pharmacological activity that has not been described hitherto. […] Suitable for differentiating the two types of action are, for example, in vitro tests on isolated spontaneously beating guinea pig right atrium (H2) and on isolated guinea pig ileum (H1) (Black, J. W.; Duncan, W. A. M.; Durant, G. J., Ganellin, C. R.; Parsons, M. E. (1972), "Definition and Antagonism of Histamine H2 -receptors", Nature 236, 385-390). The concentration/action curves for determining the pharmacological parameters (-log KB) are recorded using a cumulative technique according to van Rossum, J. M. (1963), "Cumulative Dose-Response Curves. II. Technique for the Making of Dose-Response Curves in Isolated Organs and the Evaluation of Drug Parameters", Arch. Int. Pharmacodyn. Ther. 143, 299-307.
(§2) (determined from isolated guinea pig ileum and atrium, […]

In the next experiment the target is T2, histamine H2 -receptors (Cavia porcellus, UniProt P47747).
T2 construct: isolated spontaneously beating guinea pig right atrium (H2); from tissue; host or cells: isolated spontaneously beating guinea pig right atrium
T2 sequence (P47747 whole entry): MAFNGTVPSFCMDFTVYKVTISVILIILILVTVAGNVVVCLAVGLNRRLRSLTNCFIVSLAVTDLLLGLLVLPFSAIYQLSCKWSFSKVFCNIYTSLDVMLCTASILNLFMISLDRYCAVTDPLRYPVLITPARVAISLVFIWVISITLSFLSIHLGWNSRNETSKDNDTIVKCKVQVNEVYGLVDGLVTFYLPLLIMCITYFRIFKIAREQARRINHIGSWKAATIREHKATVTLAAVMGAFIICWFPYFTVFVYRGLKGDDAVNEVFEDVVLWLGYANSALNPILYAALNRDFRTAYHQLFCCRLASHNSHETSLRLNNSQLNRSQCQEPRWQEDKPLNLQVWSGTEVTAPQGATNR
Briefly: in vitro histamine H2-antagonism on isolated spontaneously beating guinea pig right atrium. The conditions noted are these: cumulative concentration/action curves (van Rossum), read-out: H2 -antagonism atrium -log KB (converted).
Excerpt: as §1, §2

T1 sequence (P31389 whole entry): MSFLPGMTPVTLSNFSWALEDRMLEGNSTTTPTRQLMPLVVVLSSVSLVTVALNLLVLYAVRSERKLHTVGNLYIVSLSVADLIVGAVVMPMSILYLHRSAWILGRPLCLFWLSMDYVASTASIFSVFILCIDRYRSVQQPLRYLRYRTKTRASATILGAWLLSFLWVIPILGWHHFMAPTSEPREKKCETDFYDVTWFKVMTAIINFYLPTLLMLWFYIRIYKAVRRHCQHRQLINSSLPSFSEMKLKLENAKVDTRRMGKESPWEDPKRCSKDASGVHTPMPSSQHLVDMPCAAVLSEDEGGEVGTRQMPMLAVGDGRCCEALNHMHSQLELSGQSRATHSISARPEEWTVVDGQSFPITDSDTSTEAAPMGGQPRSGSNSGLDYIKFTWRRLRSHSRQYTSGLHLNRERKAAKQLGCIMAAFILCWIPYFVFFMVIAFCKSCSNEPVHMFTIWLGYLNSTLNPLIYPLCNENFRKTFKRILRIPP

In the case of `CN(CCCCCCNC(=NCCCOc1cccc(CN2CCCCC2)c1)NC#N)CCN(Cc1ccc(F)cc1)c1ccccn1` [Example 60, N-cyano-N'-[6-[N-[2-[N-(4-fluorobenzyl)-N-(2-pyridyl)amino]ethyl]-N-methylamino]hexyl]-N"-[3-[3-(piperidinomethyl)phenoxy]propyl]guanidine], the Kb (commonly the affinity of an antagonist, worked out from how it opposes an agonist) at histamine H1 -receptors was 8.71 nM; at histamine H2 -receptors it was 389 nM.
Taken in the same sequence, the figures for `CN(CCCCCCNC(=NC#N)NCCSCc1csc(N=C(N)N)n1)CCN(Cc1ccc(F)cc1)c1ccccn1` [Example 84] were 3.63 nM and 302 nM.
With `CN(CCNC(=NCCCCOc1cccc(CN2CCCCC2)c1)NC#N)CCC(c1ccc(Cl)cc1)c1ccccn1` (stereo not drawn) [Example 1, N-[2-[N-[3-(4-chlorophenyl)-3-(2-pyridyl)propyl]-N-methylamino]ethyl]-N'-cyano-N"-[4-[3-(piperidinomethyl)phenoxy]butyl]guanidine], the antagonist dissociation constant (Kb) was 63.1 nM on histamine H1 -receptors and 2290 nM on histamine H2 -receptors.
Consider `Cc1[nH]cnc1CSCCNC(=O)NCCCN(C)CCC(c1ccc(Cl)cc1)c1ccccn1` (stereo not drawn) [Example 50, N-[3-[N-[3-(4-chlorophenyl)-3-(2-pyridyl)propyl]-N-methylamino]propyl]-N'-[2-[[(5-methylimidazol-4-yl)methyl]thio]ethyl]urea], for which the antagonist equilibrium constant (Kb) at histamine H1 -receptors is 7.08 nM; on histamine H2 -receptors it was 6460 nM.
`CN(CCCCCCNC(=O)NCCSCc1csc(NC(=N)N)n1)CCN(Cc1ccc(F)cc1)c1ccccn1` [Example 94, N-[6-[N-[2-[N-(4-fluorobenzyl)-N-(2-pyridyl)amino]ethyl]-N-methylamino]hexyl]-N'-[2-[[(2-guanidino-4-thiazolyl)methyl]thio]ethyl]urea]: the antagonist equilibrium constant (Kb) at histamine H1 -receptors was 1.58 nM; on histamine H2 -receptors it was 141 nM.
`CN(CCCCCCCNC(=S)NCCSCc1csc(NC(=N)N)n1)CCC(c1ccc(Cl)cc1)c1ccccn1` (stereo not drawn) [Example 48, N-[7-[N-[3-(4-chlorophenyl)-3-(2-pyridyl)propyl]-N-methylamino]heptyl]-N'-[2-[[(2-guanidino-4-thiazolyl)methyl]thio]ethyl]thiourea]: the Kb at histamine H1 -receptors was 20 nM; at histamine H2 -receptors, 60.3 nM.
For `CN(CCCCCCCCNC(=O)NCCSCc1csc(NC(=N)N)n1)CCC(c1ccc(Cl)cc1)c1ccccn1` (stereo not drawn) [Example 35, N-[8-[N-[3-(4-chlorophenyl)-3-(2-pyridyl)propyl]-N-methylamino]octyl]-N'-[2-[[(2-guanidino-4-thiazolyl)methyl]thio]ethyl]urea], the antagonist equilibrium constant (Kb) was 13.8 nM on histamine H1 -receptors and 39.8 nM on histamine H2 -receptors.
Consider `COc1ccc(CN(CCN(C)CCCCNC(=O)NCCSCc2csc(NC(=N)N)n2)c2ccccn2)cc1` [Example 88, N-[2-[[(2-guanidino-4-thiazolyl)methyl]thio]ethyl]-N'-[4-[N-[2-[N-(4-methoxybenzyl)-N-(2-pyridyl)amino]ethyl]-N-methylamino]butyl]urea], for which the Kb on histamine H1 -receptors is 1.82 nM; on histamine H2 -receptors, 219 nM.
`CN(CCCCCNC(=O)NCCCOc1cccc(CN2CCCCC2)c1)CCN(Cc1ccc(F)cc1)c1ccccn1` [Example 70, N-[5-[N-[2-[N-(4-fluorobenzyl)-N-(2-pyridyl)amino]ethyl]-N-methylamino]-pentyl]-N'-[3-[3-(piperidinomethyl)phenoxy]propyl]urea]: the antagonist dissociation constant (Kb) on histamine H1 -receptors is 9.55 nM; on histamine H2 -receptors, 135 nM.
For `CN(CCCCCCCNC(=O)NCCSCc1csc(NC(=N)N)n1)CCC(c1ccc(Cl)cc1)c1ccccn1` (stereo not drawn) [Example 36, N-[7-[N-[3-(4-chlorophenyl)-3-(2-pyridyl)propyl]-N-methylamino]heptyl]-N'-[2-[[(2-guanidino-4-thiazolyl)methyl]thio]ethyl]urea], the Kb on histamine H1 -receptors is 5.37 nM; on histamine H2 -receptors it was 26.9 nM.
The like results for `COc1ccc(CN(CCN(C)CCCCCCNC(=C[N+](=O)[O-])NCCSCc2csc(NC(=N)N)n2)c2ccccn2)cc1` [Example 96, N-[2-[[(2-guanidino-4-thiazolyl)methyl]thio]ethyl]-N'-[6-[N-[2-[N-(4-methoxybenzyl)-N-(2-pyridyl)amino]ethyl]-N-methylamino]hexyl]-2-nitro-1,1-ethenediamine] were, in that order, 3.09 nM and 5.25 nM.
Turning to `CN(CCCCNC(=NCCCOc1cccc(CN2CCCCC2)c1)NC#N)CCC(c1ccccc1)c1ccccn1` (stereo not drawn) [Example 9, N-cyano-N'-[4-[N-[3-phenyl-3-(2-pyridyl)propyl]-N-methylamino]butyl]-N"-[3-[3-(piperidinomethyl)phenoxy]propyl]guanidine], the figures for the antagonist equilibrium constant (Kb) at histamine H1 -receptors and on histamine H2 -receptors were 11.7 nM and 501 nM, respectively.
Consider `CN(CCCCCCCNC(=NCCSCc1csc(NC(=N)N)n1)NC#N)CCN(Cc1ccc(F)cc1)c1ccccn1` [Example 85, N-cyano-N'-[7-[N-[2-[N-(4-fluorobenzyl)-N-(2-pyridyl)amino]ethyl]-N-methylamino]heptyl]-N"-[2-[[(2-guanidino-4-thiazolyl)methyl]thio]ethyl]guanidine], for which the Kb at histamine H1 -receptors is 7.08 nM; on histamine H2 -receptors it was 95.5 nM.
Take `COc1ccc(CN(CCN(C)CCCCCCNC(=O)NCCSCc2csc(NC(=N)N)n2)c2ccccn2)cc1` [Example 89, N-[2-[[(2-guanidino-4-thiazolyl)methyl]thio]ethyl]-N'-[6-[N-[2-[N-(4-methoxybenzyl)-N-(2-pyridyl)amino]ethyl]-N-methylamino]hexyl]urea]: the Kb on histamine H1 -receptors is 1.74 nM; at histamine H2 -receptors, 174 nM.
Taken in the same sequence, the figures for `COc1ccc(CN(CCN(C)CCCCCCNC(=O)NCCCOc2cccc(CN3CCCCC3)c2)c2ccccn2)cc1` [Example 66, N-[6-[N-[2-[N-(4-methoxybenzyl)-N-(2-pyridyl)amino]ethyl]-N-methylamino]hexyl]-N'-[3-[3-(piperidinomethyl)phenoxy]propyl]urea] were 11.2 nM and 182 nM.
For the molecule `COc1ccc(CN(CCN(C)CCCCCCN=C(NC#N)NCCSCc2csc(NC(=N)N)n2)c2ccccn2)cc1` [Example 79, N-cyano-N'-[2-[[(2-guanidino-4-thiazolyl)methyl]thio]ethyl]-N"-[6-[N-[2-[N-(4-methoxybenzyl)-N-(2-pyridyl)amino]ethyl]-N-methylamino]hexyl]-guanidine], the antagonist equilibrium constant (Kb) on histamine H1 -receptors was 2.45 nM; on histamine H2 -receptors, 245 nM.
Turning to `CN(CCCNC(=O)NCCCOc1cccc(CN2CCCCC2)c1)CCC(c1ccc(F)cc1)c1ccccn1` (stereo not drawn) [Example 30, N-[3-[N-[3-(4-fluorophenyl)-3-(2-pyridyl)propyl]-N-methylamino]propyl]-N'-[3-[3-(piperidinomethyl)phenoxy]propyl]urea], the antagonist dissociation constant (Kb) at histamine H1 -receptors is 6.17 nM; on histamine H2 -receptors, 209 nM.
The like results for `CN(CCCCCCNC(=O)NCCSCc1csc(NC(=N)N)n1)CCC(c1ccc(Cl)cc1)c1ccccn1` (stereo not drawn) [Example 37, N-[6-[N-[3-(4-chlorophenyl)-3-(2-pyridyl)propyl]-N-methylamino]hexyl]-N'-[2-[[(2-guanidino-4-thiazolyl)methyl]thio]ethyl]urea] were, in that order, 7.41 nM and 123 nM.
`COc1ccc(CN(CCN(C)CCCCCCNC(=C[N+](=O)[O-])NCCCOc2cccc(CN3CCCCC3)c2)c2ccccn2)cc1` [Example 75, N-[6-[N-[2-[N-(4-methoxybenzyl)-N-(2-pyridyl)amino]ethyl]-N-methylamino]hexyl]-N'-[3-[3-(piperidinomethyl)phenoxy]propyl]-2-nitro-1,1-ethenediamine]: the results for the antagonist dissociation constant (Kb) at histamine H1 -receptors and on histamine H2 -receptors were 12.3 nM and 123 nM, respectively.
For the molecule `CC(C1=C(CCN(C)CCCCCCNC(=C[N+](=O)[O-])NCCSCc2csc(N=C(N)N)n2)Cc2ccccc21)c1ccccn1` (stereo not drawn) [Example 105, N-[2-[[(2-guanidino-4-thiazolyl)methyl]thio]ethyl]-N'-[6-[N-methyl-N-[2-[1-(2-pyridyl)ethyl]inden-2-yl]ethylamino]hexyl]-2-nitro-1,1-ethenediamine], the antagonist equilibrium constant (Kb) on histamine H1 -receptors was 36.3 nM; on histamine H2 -receptors, 28.8 nM.
Consider `COc1ccc(CN(CCN(C)CCCCCCNC(=NCCCOc2cccc(CN3CCCCC3)c2)NC#N)c2ccccn2)cc1` [Example 55, N-cyano-N'-[6-[N-[2-[N-(4-methoxybenzyl)-N-(2-pyridyl)amino]ethyl]-N-methylamino]hexyl]-N"-[3-[3-(piperidinomethyl)phenoxy]propyl]guanidine], for which the values for the Kb on histamine H1 -receptors and on histamine H2 -receptors were 7.24 nM and 372 nM, respectively.
Consider `CN(CCCCCCCNC(=O)NCCCOc1cccc(CN2CCCCC2)c1)CCN(Cc1ccc(F)cc1)c1ccccn1` [Example 72, N-[7-[N-[2-[N-(4-fluorobenzyl)-N-(2-pyridyl)amino]ethyl]-N-methylamino]heptyl]-N'-[3-[3-(piperidinomethyl)phenoxy]propyl]urea], for which the antagonist equilibrium constant (Kb) at histamine H1 -receptors was 17.8 nM; on histamine H2 -receptors, 44.7 nM.
In the case of `CN(CCCNC(=NCCCOc1cccc(CN2CCCCC2)c1)NC#N)CCC(c1ccccc1)c1ccccn1` (stereo not drawn) [Example 10, N-cyano-N'-[3-[N-[3-phenyl-3-(2-pyridyl)propyl]-N-methylamino]propyl]-N"-[3-[3-(piperidinomethyl)phenoxy]propyl]guanidine], the Kb is 6.46 nM at histamine H1 -receptors and 1480 nM at histamine H2 -receptors.
For the molecule `CN(C)Cc1ccc(CSCCNC(=C[N+](=O)[O-])NCCCN(C)CCN(Cc2ccc(F)cc2)c2ccccn2)o1` [Example 104, N-[2-[[5-[(dimethylamino)methyl]furfuryl]thio]ethyl]-N'-[3-[N-[2-[N-(4-fluorobenzyl)-N-(2-pyridyl)amino]ethyl]-N-methylamino]propyl]-2-nitro-1,1-ethenediamine], the Kb at histamine H1 -receptors was 10.7 nM; on histamine H2 -receptors it was 1350 nM.
